Measurements: patent US20240360114A1 (SIRONAX LTD., priority 2021, published 2024)

tested on: HT-1080 cells; experiment: HT-1080 cell viability assay (ferroptosis induced by RSL3, Cell Titer-Glo); format: cell-based; conditions: Homo sapiens, HT-1080, 20 h, ferroptosis inducer RSL3, 20 hours, ferroptosis inhibitory activity, Table 2
Procedure, shortened: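 Cells seeded overnight, then co-treated with RSL3 and compound (3-fold, 10-point dilution, top 1.1 μM) for 20 hours. Viability by CellTiter-Glo luminescence, normalized to untreated controls; EC50 from sigmoidal non-linear regression.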

EC50 [nM]	SMILES
100 to 1000	COc1cc(NC[C@H]2CC[C@H](N)CC2)ccc1N1C[C@@H](C)O[C@@H](C)C1 [Compound 495, N-(((1r,4R)-4-aminocyclohexyl)methyl)-4-((2S,6R)-2,6-dimethylmorpholino)-3-methoxyaniline]
0.1 to 100	COC1(C(F)(F)F)CCN(c2ccc(NC3CC4(CC(N)C4)C3)c(C)n2)CC1 (stereo not shown) [Compound 498, N2-(6-(4-methoxy-4-(trifluoromethyl)piperidin-1-yl)-2-methylpyridin-3-yl)spiro[3.3]heptane-2,6-diamine]
0.1 to 100	NC[C@@H]1CCC(Nc2ccc(N3CCC(C(F)(F)F)CC3)cc2)[C@@H](N)C1 (stereo partly drawn) [Compound 503, (2S, 4R)-4-(aminomethyl)-N1-(4-(4-(trifluoromethyl)piperidin-1-yl)phenyl)cyclohexane-1,2-dia mine bis(2,2,2-trifluoroacetate)]
0.1 to 100	Cc1nc(N2CC(C)OC(C)C2)ccc1NC1CC2CC1CC2N (stereo not shown) [Compound 504, N2-(6-(2,6-dimethylmorpholino)-2-methylpyridin-3-yl)bicyclo[2.2.1]heptane-2,5-diamine]
0.1 to 100	NC1CC2(C1)CC(Nc1ccc(N3CCN(CC(F)(F)F)CC3)cc1)C2 (stereo not shown) [Compound 505, N2-(4-(4-(2,2,2-trifluoroethyl)piperazin-1-yl)phenyl)spiro[3.3]heptane-2,6-diamine]
100 to 1000	Cc1nc(N2CCC3(CCOCC3)C2)ccc1NC1CC2(CC(N)C2)C1 (stereo not shown) [Compound 507, N2-(2-methyl-6-(8-oxa-2-azaspiro[4.5]decan-2-yl)pyridin-3-yl)spiro[3.3]heptane-2,6-diamine]
0.1 to 100	Cc1nc(N2CC[C@H]3OCCC[C@@H]3C2)ccc1NC1CC2(CC(N)C2)C1 (stereo partly drawn) [Compound 508, N2-(6-((4aR,8aR)-hexahydro-2H-pyrano [3,2-c]pyridin-6 (5H)-yl)-2-methylpyridin-3-yl)spiro[3. 3]heptane-2,6-diamine]
0.1 to 100	COC1(C(F)(F)F)CCN(c2ccc(NC[C@H]3CC[C@H](N)CC3)c(C)n2)CC1 [Compound 510, N-(((1r,4r)-4-aminocyclohexyl)methyl)-6-(4-methoxy-4-(trifluoromethyl)piperidin-1-yl)-2-methylpyridin-3-amine]
0.1 to 100	Cc1nc(N2CC(C)OC(C)C2)ccc1NCC1CC2(CC(N)C2)C1 (stereo not shown) [Compound 512, N-((6-aminospiro [3.3]heptan-2-yl)methyl)-6-(2,6-dimethylmorpholino)-2-methylpyridin-3-amine]
0.1 to 100	Cc1nc(N2CC(C)(C)OC(C)(C)C2)ccc1NC[C@H]1CC[C@H](N)CC1 [Compound 514, N-(((1r,4r)-4-aminocyclohexyl)methyl)-2-methyl-6-(2,2,6,6-tetramethylmorpholino)pyridin-3-amine]
0.1 to 100	Cc1nc(N2CCOC(C)C2)ccc1NC1C2CC3CC1CC(N)(C3)C2 (stereo not shown) [Compound 518, N4-(2-methyl-6-(2-methylmorpholino)pyridin-3-yl)adamantane-1,4-diamine]
0.1 to 100	Cc1nc(N2CCOC(C)C2)ccc1NC1C2CC3CC1CC(CN)(C3)C2 (stereo not shown) [Compound 520, N-(5-(aminomethyl)adamantan-2-yl)-2-methyl-6-(2-methylmorpholino)pyridin-3-amine]
0.1 to 100	Cc1nc(N2CC3COCC3C2)ccc1NC1CC2(CC(N)C2)C1 (stereo not shown) [Compound 521]
0.1 to 100	Cc1nc(N2CC(C)OC(C)C2)ccc1NCCCC1CCC(N)CC1 (stereo not shown) [Compound 526, N-(3-((1r,4s)-4-aminocyclohexyl)propyl)-6-(2,6-dimethylmorpholino)-2-methyl pyridin-3-amine]
1000 to 10000	Cc1nc(N2CCC3(CC2)COC3)ccc1NC1CC2(CC(N)C2)C1 (stereo not shown) [Compound 530, 2-N-(2-methyl-6-{2-oxa-7-azaspiro[3.5]nonan-7-yl}pyridin-3-yl)spiro[3.3]heptane-2,6-diamine]
100 to 1000	CCN1C(C)CN(c2ccc(NC[C@H]3CC[C@H](N)CC3)cc2)CC1C (stereo partly shown) [Compound 532, N-(((1r,4r)-4-aminocyclohexyl)methyl)-4-(4-ethyl-3,5-dimethylpiperazin-1-yl)aniline]
0.1 to 100	COC1(C)CCN(c2ccc(NC3CC4(CC(N)C4)C3)c(C)n2)CC1 (stereo not shown) [Compound 536, N2-(6-(4-methoxy-4-methylpiperidin-1-yl)-2-methylpyridin-3-yl)spiro[3.3]heptane-2,6-diamine]

More lines, now with the values behind:

SMILES	EC50 [nM]
Cc1nc(N2CC3(CCOCC3)C2)ccc1NC1CC2(CC(N)C2)C1 (stereo not shown) [Compound 494, N2-(2-methyl-6-(7-oxa-2-azaspiro[3.5]nonan-2-yl)pyridin-3-yl)spiro[3.3]heptane-2,6-diamine]	100 to 1000
COc1cc(N2CC(C)OC(C)C2)ccc1NC[C@H]1CC[C@H](N)CC1 (stereo partly shown) [Compound 497, N-(((1r,4r)-4-aminocyclohexyl)methyl)-4-(2,6-dimethylmorpholino)-2-methoxyaniline]	0.1 to 100
Cc1nc(N2CCCOCC2)ccc1NC1CC2(CC(N)C2)C1 (stereo not shown) [Compound 499, N2-(2-methyl-6-(1,4-oxazepan-4-yl)pyridin-3-yl)spiro[3.3]heptane-2,6-diamine]	100 to 1000
CC[C@@H]1CN(c2ccc(NC[C@H]3CC[C@H](N)CC3)c(C)n2)C[C@H](CC)O1 [Compound 500, N-(((1r,4R)-4-aminocyclohexyl)methyl)-6-((2R,6S)-2,6-diethylmorpholino)-2-methylpyridin-3-amine]	0.1 to 100
COc1cc(N2C[C@@H](C)O[C@@H](C)C2)ncc1NC1CC2(CC(N)C2)C1 (stereo partly drawn) [Compound 501, N^2-(6-((2R,6S)-2,6-dimethylmorpholino)-4-methoxypyridin-3-yl)spiro[3.3]heptane-2,6-diamine]	1000 to 10000
CC(C)(C)OC(=O)N[C@H]1CC[C@H](CNc2ccc(N3CC4CC(C3)O4)c(F)c2)CC1 [Compound 506, tert-butyl ((1r,4r)-4-(((4-(6-oxa-3-azabicyclo[3.1.1]heptan-3-yl)-3-fluorophenyl)amino)methyl)cyclohexyl) carbamate]	0.1 to 100
Cc1nc(N2CCC3(CCCCO3)CC2)ccc1NC1CC2(CC(N)C2)C1 (stereo not shown) [Compound 509, N2-(2-methyl-6-(1-oxa-9-azaspiro [5.5]undecan-9-yl)pyridin-3-yl)spiro[3.3]heptane-2,6-diamine]	0.1 to 100
COc1nc(N2C[C@@H](C)O[C@@H](C)C2)ccc1NC[C@H]1CC[C@H](N)CC1 [Compound 511, N-(((1r,4R)-4-aminocyclohexyl)methyl)-6-((2S,6R)-2,6-dimethylmorpholino)-2-methoxypyridin-3-amine]	0.1 to 100
CC1(C)CN(c2ccc(NC[C@H]3CC[C@H](N)CC3)cc2F)CC(C)(C)O1 [Compound 513, N-(((1r,4r)-4-aminocyclohexyl)methyl)-3-fluoro-4-(2,2,6,6-tetramethylmorpholino)aniline]	0.1 to 100
Cc1nc(N2CC(C)(C)OC(C)(C)C2)ccc1NC1CC2(CC(N)C2)C1 (stereo not shown) [Compound 515, N2-(2-methyl-6-(2,2,6,6-tetramethylmorpholino)pyridin-3-yl)spiro[3.3]heptane-2,6-diamine]	0.1 to 100
Cc1nc(N2CC(C)OC(C)C2)ccc1NCC12CC3CC(C1)C(N)C(C3)C2 (stereo not shown) [Compound 516A, N-(((1s,4r)-4-aminoadamantan-1-yl)methyl)-6-(2,6-dimethylmorpholino)-2-methylpyridin-3-amine]	0.1 to 100
Cc1nc(N2CCOCC2)ccc1NC1C2CC3CC1CC(N)(C3)C2 (stereo not shown) [Compound 517, N4-(2-methyl-6-morpholinopyridin-3-yl)adamantane-1,4-diamine]	100 to 1000
Cc1nc(N2CC(C)OC(C)C2)c(F)cc1NC1C2CC3CC1CC(N)(C3)C2 (stereo not shown) [Compound 519, N4-(6-(2,6-dimethylmorpholino)-5-fluoro-2-methylpyridin-3-yl)adamantane-1,4-diamine]	0.1 to 100
CC1CC(C)CN(c2ccc(NC[C@H]3CC[C@H](N)CC3)cc2)C1 (stereo partly shown) [Compound 522, N-(((1r,4r)-4-aminocyclohexyl)methyl)-4-(3,5-dimethylpiperidin-1-yl)aniline]	0.1 to 100
Cc1nc(N2C3COCC2C3)ccc1NC1CC2(CC(N)C2)C1 (stereo not shown) [Compound 523, N2-(6-(3-oxa-6-azabicyclo[3.1.1]heptan-6-yl)-2-methylpyridin-3-yl)spiro[3.3]heptane-2,6-diamine]	1000 to 10000
Cc1nc(N2CC3CC(C2)O3)ccc1NC1CC2(CC(N)C2)C1 (stereo not shown) [Compound 524, N2-(6-(6-oxa-3-azabicyclo[3.1.1]heptan-3-yl)-2-methylpyridin-3-yl)spiro[3.3]heptane-2,6-diamine]	100 to 1000
CC1CN(c2ccc(NC[C@H]3CC[C@H](N)CC3)cc2)CC(C)N1C (stereo partly shown) [Compound 525, N-(((1r,4r)-4-aminocyclohexyl)methyl)-4-(3,4,5-trimethylpiperazin-1-yl)aniline]	100 to 1000
COC1CCN(c2ccc(NC3CC4(CC(N)C4)C3)c(C)n2)CC1 (stereo not shown) [Compound 527]	0.1 to 100
Cc1nc(N2C3CCC2COC3)ccc1NC1CC2(CC(N)C2)C1 (stereo not shown) [Compound 528, N2-(6-(3-oxa-8-azabicyclo[3.2.1]octan-8-yl)-2-methylpyridin-3-yl)spiro[3.3]heptane-2,6-diamine]	100 to 1000
COC(C)(C)C1CCN(c2ccc(NC3CC4(CC(N)C4)C3)c(C)n2)CC1 (stereo not shown) [Compound 529, N2-(6-(4-(2-methoxypropan-2-yl)piperidin-1-yl)-2-methylpyridin-3-yl)spiro[3.3]-heptane-2,6-diamine]	0.1 to 100
Cc1nc(N2CCC3(CCCOC3)CC2)ccc1NC1CC2(CC(N)C2)C1 (stereo not shown) [Compound 533, N2-(2-methyl-6-(2-oxa-9-azaspiro [5.5]undecan-9-yl)pyridin-3-yl)spiro[3.3]heptane-2,6-diamine]	0.1 to 100
Cc1nc(N2CC(C)OC(C)C2)ccc1NC1CCC(CCCN)CC1 (stereo not shown) [Compound 534, N-(4-(3-aminopropyl)cyclohexyl)-6-(2,6-dimethylmorpholino)-2-methylpyridin-3-amine]	0.1 to 100

same assay, conditions: ferroptosis inducer RSL3, 20 hours, ferroptosis inhibitory activity, Table 2

EC50 [nM]	SMILES
0.1 to 100	CC1CN(c2ccc(NC3CC4(CC(N)C4)C3)cc2F)CC(C)N1CC(F)(F)F (stereo not shown) [Compound 535]
